Source: PubChem BioAssay AID248 (DTP/NCI, 2004)
Several values for one entry are separate records, joined by “and”; a condition that tells them apart may be missing. Equal entries are not always repeated. Toxic doses and inconclusive results are not listed.

Test system: L1210 leukemia ip in BDF1 mice, survival T/C
Assay: NCI In Vivo Anticancer Drug Screen. Data for tumor model L1210 Leukemia (intraperitoneal) in B6D2F1 (BDF1) mice
Settings: endpoint: mean survival time, higher = longer survival
How it was run: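 Value reflects the ratio of survival in compound-treated mice to survival in vehicle-treated controls, with both groups carrying the same transplanted tumor.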

[1] = dose: 100.0 mg/kg/injection, schedule: Q01DX009 (ip), vehicle: Klucel (hydroxypropylcellulose) (HPC)
[2] = dose: 100.0 mg/kg/injection, schedule: Q04DX003 (ip), vehicle: saline
[3] = dose: 200.0 mg/kg/injection, schedule: Q01DX009 (ip), vehicle: Klucel (hydroxypropylcellulose) (HPC)
[4] = dose: 400.0 mg/kg/injection, schedule: Q01DX009 (ip), vehicle: Klucel (hydroxypropylcellulose) (HPC)
[5] = dose: 100.0 mg/kg/injection, schedule: Q04DX003 (ip), vehicle: saline with Tween-80
[6] = dose: 200.0 mg/kg/injection, schedule: Q04DX003 (ip), vehicle: saline with Tween-80
[7] = dose: 400.0 mg/kg/injection, schedule: Q04DX002 (ip), vehicle: saline with Tween-80
[8] = dose: 400.0 mg/kg/injection, schedule: Q04DX003 (ip), vehicle: saline with Tween-80
[9] = dose: 100.0 mg/kg/injection, schedule: Q01DX001 (ip), vehicle: saline with Tween-80
[10] = dose: 200.0 mg/kg/injection, schedule: Q01DX001 (ip), vehicle: saline with Tween-80
[11] = dose: 400.0 mg/kg/injection, schedule: Q01DX001 (ip), vehicle: saline with Tween-80
[12] = dose: 100.0 mg/kg/injection, schedule: Q01DX001 (ip), vehicle: saline
[13] = dose: 200.0 mg/kg/injection, schedule: Q01DX001 (ip), vehicle: saline
[14] = dose: 400.0 mg/kg/injection, schedule: Q01DX001 (ip), vehicle: saline
[15] = dose: 100.0 mg/kg/injection, schedule: Q04DX002 (ip), vehicle: saline with Tween-80
[16] = dose: 200.0 mg/kg/injection, schedule: Q04DX002 (ip), vehicle: saline with Tween-80
[17] = dose: 100.0 mg/kg/injection, schedule: Q01DX001 (ip), vehicle: Klucel (hydroxypropylcellulose) (HPC)
[18] = dose: 200.0 mg/kg/injection, schedule: Q01DX001 (ip), vehicle: Klucel (hydroxypropylcellulose) (HPC)
[19] = dose: 400.0 mg/kg/injection, schedule: Q01DX001 (ip), vehicle: Klucel (hydroxypropylcellulose) (HPC)
[20] = dose: 100.0 mg/kg/injection, schedule: Q01DX009 (ip), vehicle: saline with Tween-80
[21] = dose: 100.0 mg/kg/injection, schedule: Q01DX001 (ip), vehicle: other
[22] = dose: 200.0 mg/kg/injection, schedule: Q01DX001 (ip), vehicle: other
[23] = dose: 400.0 mg/kg/injection, schedule: Q01DX001 (ip), vehicle: other

NC(=S)Nc1c(Cl)cc(Cl)cc1Cl
T/C (dose: 25.0 mg/kg/injection, schedule: Q01DX009 (ip), vehicle: Klucel (hydroxypropylcellulose) (HPC)): 94 % of control | T/C (dose: 50.0 mg/kg/injection, schedule: Q01DX009 (ip), vehicle: Klucel (hydroxypropylcellulose) (HPC)): 108 % of control | T/C [1]: 94 % of control and 107 % of control

CCN(CC)CCOc1ccc(/C=C2\CCc3ccccc3C2=O)cc1
T/C (dose: 25.0 mg/kg/injection, schedule: Q01DX007 (ip), vehicle: saline): 104 % of control | T/C (dose: 50.0 mg/kg/injection, schedule: Q01DX007 (ip), vehicle: saline): 102 % of control | T/C (dose: 50.0 mg/kg/injection, schedule: Q04DX003 (ip), vehicle: saline): 95 % of control | T/C (dose: 100.0 mg/kg/injection, schedule: Q01DX007 (ip), vehicle: saline): 96 % of control | T/C [2]: 95 % of control

Cc1ccc(/C([O-])=C(\C(=S)Nc2cccc(C(F)(F)F)c2)[n+]2ccccc2)cc1
T/C [1]: 103 % of control | T/C [3]: 103 % of control | T/C [4]: 94 % of control

c1ccc(N(c2ccccc2)C(c2ccccc2)(c2ccccc2)c2ccccc2)cc1
T/C (dose: 25.6 mg/kg/injection, schedule: Q04DX002 (ip), vehicle: saline with Tween-80): 93 % of control | T/C (dose: 64.0 mg/kg/injection, schedule: Q04DX002 (ip), vehicle: saline with Tween-80): 104 % of control | T/C [5]: 89 % of control | T/C (dose: 160.0 mg/kg/injection, schedule: Q04DX002 (ip), vehicle: saline with Tween-80): 95 % of control | T/C [6]: 92 % of control | T/C [7]: 95 % of control | T/C [8]: 685 % of control

Cc1cccc(C)c1NC(=O)N(CCO)C1CCCCC1
T/C [2]: 102 % of control | T/C (dose: 200.0 mg/kg/injection, schedule: Q04DX003 (ip), vehicle: saline): 112 % of control | T/C (dose: 400.0 mg/kg/injection, schedule: Q04DX003 (ip), vehicle: saline): 104 % of control

IC#Cc1ccccc1
T/C [9]: 112 % of control | T/C [10]: 105 % of control | T/C [11]: 105 % of control

COc1cc(NC(=O)c2ccc(C(=O)Nc3cc(OC)cc4cccnc34)cc2)c2ncccc2c1
T/C [12]: 94 % of control | T/C [13]: 100 % of control | T/C [14]: 103 % of control

Oc1cccc2c(NC(=S)Nc3ccccc3)cccc12
T/C [1]: 101 % of control | T/C (dose: 100.0 mg/kg/injection, schedule: Q04DX002 (ip), vehicle: Klucel (hydroxypropylcellulose) (HPC)): 96 % of control | T/C [3]: 101 % of control | T/C (dose: 200.0 mg/kg/injection, schedule: Q04DX002 (ip), vehicle: Klucel (hydroxypropylcellulose) (HPC)): 104 % of control | T/C (dose: 400.0 mg/kg/injection, schedule: Q04DX002 (ip), vehicle: Klucel (hydroxypropylcellulose) (HPC)): 100 % of control

O=C(O)CS(=O)(=O)Cc1ccc(Cl)cc1
T/C [15]: 95 % of control | T/C [16]: 113 % of control | T/C [7]: 95 % of control

O=C(O)c1cccc(S)c1
T/C [15]: 113 % of control | T/C [16]: 113 % of control

CCOC(=O)C(C1=NC(C)(C)CC(C)O1)C1CCCCC1 (centres undefined)
T/C (dose: 100.0 mg/kg/injection, schedule: Q04DX003 (ip), vehicle: saline sonified): 115 % of control | T/C (dose: 200.0 mg/kg/injection, schedule: Q04DX003 (ip), vehicle: saline sonified): 102 % of control | T/C (dose: 400.0 mg/kg/injection, schedule: Q04DX003 (ip), vehicle: saline sonified): 108 % of control

CN(C)CCC(=O)c1cccc([N+](=O)[O-])c1
T/C (dose: 75.0 mg/kg/injection, schedule: Q01DX001 (ip), vehicle: other): 102 % of control

CC(=O)NC1CCC2CCCCC2C1 (centres undefined)
T/C [17]: 97 % of control | T/C [1]: 103 % of control | T/C (dose: 100.0 mg/kg/injection, schedule: Q04DX003 (ip), vehicle: Klucel (hydroxypropylcellulose) (HPC)): 97 % of control | T/C [18]: 101 % of control | T/C [3]: 95 % of control | T/C (dose: 200.0 mg/kg/injection, schedule: Q04DX003 (ip), vehicle: Klucel (hydroxypropylcellulose) (HPC)): 99 % of control | T/C [19]: 101 % of control | T/C [4]: 98 % of control | T/C (dose: 400.0 mg/kg/injection, schedule: Q04DX003 (ip), vehicle: Klucel (hydroxypropylcellulose) (HPC)): 96 % of control

CCCCCCC[As](=O)(O)O
T/C (dose: 6.25 mg/kg/injection, schedule: Q01DX009 (ip), vehicle: Klucel (hydroxypropylcellulose) (HPC)): 99 % of control | T/C (dose: 12.5 mg/kg/injection, schedule: Q01DX009 (ip), vehicle: Klucel (hydroxypropylcellulose) (HPC)): 101 % of control

CC(C)/C(=N\Nc1ccc([N+](=O)[O-])cc1[N+](=O)[O-])c1ccccc1
T/C [5]: 96 % of control | T/C [6]: 106 % of control | T/C [8]: 100 % of control

O=C(O)c1c(Br)c(Br)c(Br)c(Br)c1C(=O)Nc1ccc(Cl)cc1C(F)(F)F
T/C [1]: 101 % of control | T/C [3]: 112 % of control | T/C [4]: 102 % of control

c1ccc2c(c1)CCc1ccccc1N=N2
T/C [17]: 96 % of control | T/C [18]: 92 % of control | T/C [19]: 94 % of control

O=C1NC(=O)C(Cc2ccc(Cl)cc2)C(=O)N1
T/C [20]: 103 % of control | T/C [15]: 93 % of control | T/C (dose: 200.0 mg/kg/injection, schedule: Q01DX009 (ip), vehicle: saline with Tween-80): 98 % of control | T/C [16]: 101 % of control | T/C (dose: 400.0 mg/kg/injection, schedule: Q01DX009 (ip), vehicle: saline with Tween-80): 98 % of control | T/C [7]: 101 % of control

CC(C)(C)NC(=O)Nc1ccc2ccccc2c1
T/C (dose: 100.0 mg/kg/injection, schedule: Q01DX009 (ip), vehicle: other): 93 % of control | T/C (dose: 200.0 mg/kg/injection, schedule: Q01DX009 (ip), vehicle: other): 89 % of control | T/C (dose: 400.0 mg/kg/injection, schedule: Q01DX009 (ip), vehicle: other): 94 % of control

Cc1c2c(cc3c1CCC1(C)C3=CCC1C(C)CCC(C)C(C)C)CCCC2 (centres undefined)
T/C [9]: 93 % of control | T/C [10]: 95 % of control | T/C [11]: 91 % of control

N#C/C(=C\c1cc(Cl)cc(Cl)c1O)c1ccc([N+](=O)[O-])cc1
T/C [5]: 90 % of control | T/C [6]: 92 % of control

Cc1ccc(S(=O)(=O)N2CCc3ccccc3C=C2Br)cc1
T/C (dose: 100.0 mg/kg/injection, schedule: Q01DX001 (ip), vehicle: carboxymethylcellulose (CMC)): 100 % of control | T/C (dose: 200.0 mg/kg/injection, schedule: Q01DX001 (ip), vehicle: carboxymethylcellulose (CMC)): 102 % of control | T/C (dose: 400.0 mg/kg/injection, schedule: Q01DX001 (ip), vehicle: carboxymethylcellulose (CMC)): 112 % of control

COc1ccc(OC(=O)Nc2ccc(Cl)cc2OC)cc1
T/C [1]: 92 % of control | T/C [3]: 95 % of control

CC12CC3CC(Br)(C1)CC(C#N)(C3)C2 (centres undefined)
T/C (dose: 6.0 mg/kg/injection, schedule: Q04DX002 (ip), vehicle: Klucel (hydroxypropylcellulose) (HPC)): 109 % of control | T/C (dose: 12.0 mg/kg/injection, schedule: Q04DX002 (ip), vehicle: Klucel (hydroxypropylcellulose) (HPC)): 98 % of control | T/C (dose: 25.0 mg/kg/injection, schedule: Q04DX002 (ip), vehicle: Klucel (hydroxypropylcellulose) (HPC)): 94 % of control

N#C/C(=C\c1ccccn1)c1ccc(Cl)cc1
T/C [21]: 95 % of control | T/C [22]: 92 % of control | T/C [23]: 94 % of control

NC(=O)NC1CCCCC1
T/C [5]: 87 % of control | T/C [6]: 97 % of control | T/C [8]: 92 % of control

O=[N+]([O-])c1ccc(/C=N\N=C\c2ccc([N+](=O)[O-])cc2)cc1
T/C [21]: 104 % of control | T/C [22]: 104 % of control | T/C [23]: 104 % of control

NCC(OC1CCCCC1)C(Cl)(Cl)Cl (centres undefined)
T/C (dose: 50.0 mg/kg/injection, schedule: Q01DX009 (ip), vehicle: saline with Tween-80): 92 % of control | T/C [20]: 97 % of control

O=C(O)c1cc(=O)cc(C(=O)O)o1
T/C [5]: 95 % of control

C(/CCC/C=N/Nc1ccccc1)=N\Nc1ccccc1
T/C (dose: 50.0 mg/kg/injection, schedule: Q01DX001 (ip), vehicle: saline): 103 % of control | T/C [12]: 100 % of control | T/C [13]: 109 % of control | T/C [14]: 100 % of control
